{"source": "patent US9770421B2", "about": "“Uses for idebenone and related benzoquinones in metabolic disorders and other PPAR α/γ related diseases and conditions” (INDANIO BIOSCIENCE INC., priority 2013, dated 2017)", "key": {"PPARα": {"biological_target": "T1, PPARα (Homo sapiens, UniProt Q07869)", "T1 sequence (Q07869 178-468)": "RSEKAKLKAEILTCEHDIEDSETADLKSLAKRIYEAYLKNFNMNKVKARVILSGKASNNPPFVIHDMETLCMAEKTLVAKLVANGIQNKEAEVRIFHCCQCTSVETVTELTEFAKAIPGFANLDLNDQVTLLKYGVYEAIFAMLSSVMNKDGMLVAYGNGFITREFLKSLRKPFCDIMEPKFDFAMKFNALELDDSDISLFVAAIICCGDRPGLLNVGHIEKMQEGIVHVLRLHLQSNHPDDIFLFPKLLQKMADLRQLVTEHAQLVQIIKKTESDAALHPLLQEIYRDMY", "experiment": "PPARα ligand trap zebrafish GFP reporter assay", "type": "in vivo", "set-up": "pLT PPARα (aa 178-468) and pLT PPAR γ (aa 188-477) lines; expressed in transfected cells; host or cells: transgenic zebrafish embryos (ligand-trap line)", "conditions": "transgenic embryos, 48 hpf", "protocol": "Zebrafish were maintained at 28.5° C. on a 14/10 hour light/dark cycle and staged according to hours (h) or days (d) postfertilization. To generate pLT PPARα (aa 178-468) and pLT PPAR γ (aa 188-477) lines, plasmids were pre-digested with I-SceI (0.8 μg DNA, 1 μl I-SceI (New England Biolabs) 2 μl 10×I-SceI buffer, 1 μl BSA) for 20 min at 37° C. Digested DNA was adjusted with 0.1% phenol red. 4.6 nl of DNA solution was injected into the blastomeres of early one-cell stage embryos.\n(§1) F0 fish were crossed with WT fish to identify germ-line transformed animals, as determined by agonist treatments and GFP expression. F1 progeny showing strong and consistent GFP responses were selected for F2 homozygote production. To avoid reporter GFP silencing of stable transgenic LT lines, homozygous fish showing strong and consistent GFP responses were selected for continued propagation of next generations.\nPPARγ ligand trap zebrafish screens were performed under optimized conditions in 96-well format using the ImageXpress Velos Laser Scanning Cytometer. 1 or 2 dpf embryos were heat induced (28→37° C.) for 30 minutes, de-chorionated and then arrayed in 96-well plates (5 per well). […] Embryos were incubated at 28° C. for 14 h, anesthetized with Tricaine (Sigma, Cat. # A-5040) and then analyzed for GFP fluorescence using the ImageXpress Velos Laser Scanning Cytometer."}, "hPPARγ": {"biological_target": "T2, hPPARγ (Homo sapiens, UniProt P37231)", "T2 sequence (P37231 188-477 isoform P37231-2)": "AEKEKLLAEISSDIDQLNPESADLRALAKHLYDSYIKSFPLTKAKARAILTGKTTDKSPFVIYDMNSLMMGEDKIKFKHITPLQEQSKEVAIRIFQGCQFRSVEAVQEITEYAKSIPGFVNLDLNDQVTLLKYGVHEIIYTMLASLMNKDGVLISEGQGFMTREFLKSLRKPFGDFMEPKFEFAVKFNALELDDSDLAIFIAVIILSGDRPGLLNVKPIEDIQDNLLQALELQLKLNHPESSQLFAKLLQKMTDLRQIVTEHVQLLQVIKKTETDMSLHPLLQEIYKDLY", "experiment": "PPARγ ligand trap (LT) zebrafish GFP reporter screen/assay", "type": "in vivo", "set-up": "pLT PPARα (aa 178-468) and pLT PPAR γ (aa 188-477) lines; expressed in transfected cells; host or cells: transgenic zebrafish embryos (heat-induced ligand-trap line)", "conditions": "transgenic embryos, 48 hpf images", "protocol": "Digested DNA was adjusted with 0.1% phenol red. 4.6 nl of DNA solution was injected into the blastomeres of early one-cell stage embryos.\nas §1\nPPARγ ligand trap zebrafish screens were performed under optimized conditions in 96-well format using the ImageXpress Velos Laser Scanning Cytometer. 1 or 2 dpf embryos were heat induced (28→37° C.) for 30 minutes, de-chorionated and then arrayed in 96-well plates (5 per well). Embryo water (0.075 g/L NaHCO3, 0.018 g/L Sea salt, 0.0084 g/L CaSO42H2O) was removed and 200 μl of fresh embryo water/well including dissolved small molecules or solvent was added.\nAlso included was the CoQ10 analog idebenone."}, "PPARδ/β": {"biological_target": "T3, PPARδ/β (Homo sapiens, UniProt Q03181)", "T3 construct": "expressed in transfected cells; host or cells: transgenic zebrafish embryos (ligand-trap line)", "T3 sequence (Q03181 211-439 limits assumed)": "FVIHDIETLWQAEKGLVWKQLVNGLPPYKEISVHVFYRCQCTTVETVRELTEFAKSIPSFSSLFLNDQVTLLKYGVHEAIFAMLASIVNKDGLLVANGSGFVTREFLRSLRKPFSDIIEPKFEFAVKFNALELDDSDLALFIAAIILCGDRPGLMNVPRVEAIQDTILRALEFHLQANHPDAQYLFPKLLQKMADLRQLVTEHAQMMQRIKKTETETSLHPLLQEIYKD", "experiment": "PPARδ/β ligand trap transgenic zebrafish line", "conditions": "in vivo", "protocol": "To test for specificity, idebenone and CoQ10 were also tested on PPARα, and PPARδ/β receptors in vivo and in vitro. […] The same relative responses were obtained with HEK 293 cells grown in culture and transfected with PPAR expression vectors and luciferase reporters (FIG. 5)."}, "[1]": {"biological_target": "T4, human PPARγ LBD (residues 206-477) (Homo sapiens, UniProt P37231)", "T4 construct": "human PPARγ LBD (residues 206-477), expressed in pRSET; His tag (implied by Ni-NTA purification and the pRSET vector); made in house; host or cells: E. coli BL21 codon plus (pRSET)", "T4 sequence (P37231 206-477 isoform P37231-2)": "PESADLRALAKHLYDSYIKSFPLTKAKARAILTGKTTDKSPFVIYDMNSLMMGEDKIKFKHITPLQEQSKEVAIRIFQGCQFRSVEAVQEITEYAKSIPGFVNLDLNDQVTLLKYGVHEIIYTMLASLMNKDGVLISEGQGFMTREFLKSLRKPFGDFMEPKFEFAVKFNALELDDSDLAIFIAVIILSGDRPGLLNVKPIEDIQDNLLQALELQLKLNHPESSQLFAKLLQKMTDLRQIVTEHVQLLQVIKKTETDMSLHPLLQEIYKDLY", "experiment": "Stargazer thermostabilization assay", "type": "binding", "conditions": "0.2 mg/ml PPARγ LBD, heated to 80° C."}, "hPPARδ/β": {"biological_target": "T5, hPPARδ/β (Homo sapiens, UniProt Q03181)", "T5 sequence (Q03181 143-441)": "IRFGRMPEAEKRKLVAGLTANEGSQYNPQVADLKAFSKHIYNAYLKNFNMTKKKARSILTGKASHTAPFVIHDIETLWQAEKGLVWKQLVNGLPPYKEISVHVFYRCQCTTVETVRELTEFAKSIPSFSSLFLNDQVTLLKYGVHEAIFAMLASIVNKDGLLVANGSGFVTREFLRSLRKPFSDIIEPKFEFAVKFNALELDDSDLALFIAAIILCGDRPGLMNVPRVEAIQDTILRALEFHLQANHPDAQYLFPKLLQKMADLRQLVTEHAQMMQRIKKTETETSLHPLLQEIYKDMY", "experiment": "HEK293 cell culture luciferase reporter assay, hPPARδ/β", "conditions": "read-out: EC50 hPPARδ/β; HEK293, GAL4-hPPARδ/β LBD, luciferase"}, "C57Bl/6 db/db mice": {"tested_on": "C57Bl/6 db/db mice", "experiment": "db/db mouse study (NAFLD features)", "type": "in vivo", "conditions": "10 mpk in food, 3 weeks, versus vehicle", "protocol": "Db/db study: Forty male C57Bl/6 db/db mice (called B6.BKS(D)-Lepr db/J) were ordered from Jackson Laboratories (#000697) at 7 weeks of age. Mice were housed individually with free access to food (2016 Teklad Global 16% Protein Rodent Diet) and water on a 14 hour light/dark cycle (6 a.m. to 8 p.m. light). […] Food was exchanged on a daily bases. Harlan corn cob bedding was provided and was changed every week or as needed. Following a 1 week acclimation, 32 mice were chosen based on desired body weight range. Remaining mice were euthanized. Mice were randomized by body weight into four treatment groups (n=8) by body weight. Dosing occurred for 21 days. Mice were euthanized by CO2 euthanasia and livers were fixed in neutral buffered formalin (NBF) for 24 h, followed by a one day fixation in 30% Sucrose and 10% Sucrose. Oil O Red staining was performed through the Pathology Research Program at the University Health Network in Toronto [46]. [table] 100 mg of db/db livers were homogenized in RIPA buffer and protein concentration was quantified using a BCA protein assay kit (Cell signalling #7780) followed by measurement of ‘Thiobarbituric Acid Reactive Substances’ (TBARS) using a TBARS assay kit (Cayman Chemicals #10009055). Total RNA was extracted from 100 mg of db/db livers using RNA STAT-60 (Tel-Test, Inc.), treated with DNase I (RNase-free, Roche), and reverse transcribed into cDNA with random hexamers using the High Capacity Reverse transcription system (Applied Biosystems, ABI). Primers used are shown below and were validated as previously described. Real-time QPCR reactions were performed on an ABI 7900 in 384-well plates containing 12.5 ng cDNA, 150 nM of each primer, and 5 μl 2×SYBR Green PCR Master Mix (ABI) in a 10 μl total volume. Relative mRNA levels were calculated using the comparative Ct method normalized to cyclophilin mRNA."}, "[2]": {"tested_on": "GFP-expressing leukocytes recruited in response to CuSO4", "experiment": "Zebrafish inflammation assay (CuSO4)", "type": "in vivo", "conditions": "10 μM CuSO4, 55 hpf embryos", "protocol": "Assay was performed as described in [47]. Fifteen dechorionated 55 hpf (hours post fertilization) embryos were transferred in each well of 6-well plates in 6 ml of embryo water. Idebenone was added at increasing concentrations (0.25, 0.75, 1.5, 3 and 5 μM). Embryos were incubated in the dark for 1 hr at 28 C, followed by a second 40 min incubation with copper sulfate (CuSO4) at a final concentration of 10 μM at 28 C in the dark. Embryos were then transferred to Eppendorf tubes and fixed in 4% paraformaldehyde in 1×PBS overnight at 4 C in the dark. Numbers of GFP+ cells were counted along the lateral line/neuromast clusters.\nPrevious studies have shown that PPAR agonists have anti-inflammatory properties, and can be used to treat a variety of inflammatory responses. To test if this is also true for idebenone, we used a zebrafish model of inflammation. Exposure of fish larvae to copper sulfate causes non-invasive damage to neuromast cells, which form external clusters along the lateral midline. This inflammation can be visualized via the recruitment of GFP-expressing leukocytes. As expected, this recruitment of GFP positive cells could be alleviated by addition of the known anti-inflammatory agent ibuprofen (FIG. 11)."}}, "note": "“Also recorded” adds a separate entry of the source.", "data": [{"smiles": "COC1=C(OC)C(=O)C(C/C=C(\\C)CC/C=C(\\C)CC/C=C(\\C)CC/C=C(\\C)CC/C=C(\\C)CC/C=C(\\C)CC/C=C(\\C)CC/C=C(\\C)CC/C=C(\\C)CCC=C(C)C)=C(C)C1=O", "note": "[CoQ10, coenzyme Q10]", "values": [{"measurement": "GFP response of PPARα LT line", "setting": "PPARα", "value": "robust response; also recorded: dual agonists for PPARα and PPARγ"}, {"measurement": "GFP reporter activation in LT-PPARγ embryos", "setting": "hPPARγ", "value": "dual agonists for PPARα and PPARγ"}, {"measurement": "Response of PPARδ/β transgenic line", "setting": "PPARδ/β", "value": "no response"}]}, {"smiles": "COC1=C(OC)C(=O)C(C)=CC1=O", "note": "[CoQ0, Coenzyme Q0]", "values": [{"measurement": "GFP reporter activation in LT-PPARγ embryos", "setting": "hPPARγ", "value": "relatively weak activity; also recorded: weak PPARγ activation"}, {"measurement": "Shift of thermal denaturation transition temperature", "setting": "[1]", "value": 8.5, "unit": "°C"}]}, {"smiles": "O=C(O)COc1ccc(SCC=C(c2ccc(Br)cc2)c2ccc(Br)cc2)cc1Cl", "note": "[CAY10592]", "values": [{"measurement": "EC50", "setting": "hPPARδ/β", "value": 12.8, "unit": "nM"}]}, {"smiles": "O=C1C=CC(=O)C=C1", "note": "[1,4-benzoquinone]", "values": [{"measurement": "GFP reporter activation in LT-PPARγ embryos", "setting": "hPPARγ", "value": "did not induce a detectable response"}, {"measurement": "GFP reporter activation in LT-PPARγ embryos", "setting": "hPPARγ; listed as benzoquinone", "value": "no reporter activation"}]}, {"smiles": "COC1=C(OC)C(=O)C(CC=C(C)C)=C(C)C1=O", "note": "[CoQ1, coenzyme Q1]", "values": [{"measurement": "GFP reporter activation in LT-PPARγ embryos", "setting": "hPPARγ", "value": "relatively weak activity; also recorded: weak PPARγ activation"}]}, {"smiles": "CN(CCOc1ccc(CC2SC(=O)NC2=O)cc1)c1ccccn1", "note": "(stereo not shown) [rosiglitazone]", "values": [{"measurement": "Gain in liver weight", "setting": "C57Bl/6 db/db mice", "value": 8.6, "unit": "%"}]}, {"smiles": "COC1=C(OC)C(=O)C(CCCCCCCCCC[P+](c2ccccc2)(c2ccccc2)c2ccccc2)=C(C)C1=O", "note": "[MitoQ, 10-[4,5-dimethoxy-2-methyl-3,6-dioxo-1,4-cycloheexadienl-yl]decyl triphenylphosphonium methanesulfonate]", "values": [{"measurement": "GFP reporter activation in LT-PPARγ embryos", "setting": "hPPARγ", "value": "failed to activate; also recorded: no activation"}]}, {"smiles": "COC1=C(OC)C(=O)C(C/C=C(\\C)CCC=C(C)C)=C(C)C1=O", "note": "[CoQ2, coenzyme Q2]", "values": [{"measurement": "GFP reporter activation in LT-PPARγ embryos", "setting": "hPPARγ", "value": "activity similar to idebenone and CoQ10"}]}, {"smiles": "CC(C)Cc1ccc(C(C)C(=O)O)cc1", "note": "(stereo not shown) [Ibuprofen]", "values": [{"measurement": "Recruitment of GFP positive leukocytes (anti-inflammatory activity)", "setting": "[2]", "value": "alleviated"}]}]}
